Test results published in ChEMBL document CHEMBL1201862, “PubChem BioAssay data set” (2004).
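Step 1: Grow cells in 96-well plates. Step 2: Expose to compound for 48 hours at 5 concentrations. Step 3: Interpolate endpoints linearly; if unreached, use highest concentration. GI50 marks 50% less growth.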 Calls of active or inactive are those of the source. Cut-off read from the data, not from the text of the source: active = GI50 up to about 1.1 µM and inactive = higher.

How the values were obtained:
Assay in all cases: growth of human tumour cells (NCI), 48 h
A498 = test system: A498
K562 = test system: K562
SNB-19 = test system: SNB-19
UO-31 = test system: UO-31
MOLT-4 = test system: MOLT-4
M14 = test system: M14
ACHN = test system: ACHN
HCT-116 = test system: HCT-116
HOP-92 = test system: HOP-92
NCI-H522 = test system: NCI-H522
RXF 393 = test system: RXF 393
TK-10 = test system: TK-10
Malme-3M = test system: Malme-3M
SF-539 = test system: SF-539
SF-295 = test system: SF-295
M19-MEL = test system: M19-MEL
SK-MEL-2 = test system: SK-MEL-2
DU-145 = test system: DU-145
MDA-N = test system: MDA-N
MCF7 = test system: MCF7

Measured: GI50

CCCCCCC(=O)C/C(CCC(=O)N(Cc1ccccc1)Cc1ccccc1)=N\NC(N)=O
inactive: A498 > 100 µM | K562 > 100 µM | SNB-19 > 100 µM | UO-31 > 100 µM | MOLT-4 > 100 µM | M14 > 100 µM | ACHN > 100 µM | HCT-116 > 100 µM | HOP-92 > 100 µM | NCI-H522 > 100 µM | RXF 393 > 100 µM | TK-10 > 100 µM | Malme-3M > 100 µM | SF-539 > 100 µM | SF-295 > 100 µM | M19-MEL > 100 µM | SK-MEL-2 > 100 µM

O=C1c2ccccc2C2(O)c3cc4ccccc4cc3OC12O (stereo not drawn)
inactive: A498 > 100 µM | K562 46 µM | SNB-19 31.2 µM | MOLT-4 37.7 µM | M14 56.9 µM | ACHN 97.3 µM | HCT-116 69 µM | HOP-92 27.6 µM | NCI-H522 40.9 µM | RXF 393 29.2 µM | TK-10 > 100 µM | Malme-3M 47.1 µM | SF-539 > 100 µM | SF-295 34.2 µM | M19-MEL 47.2 µM | SK-MEL-2 47.3 µM

N#C/C(=C\c1ccc2[nH]ccc2c1)C(=O)NCCCCNC(=O)/C(C#N)=C/c1ccc2[nH]ccc2c1
inactive: A498 > 31.6 µM | K562 > 31.6 µM | SNB-19 > 31.6 µM | UO-31 > 31.6 µM | MOLT-4 > 31.6 µM | M14 > 31.6 µM | ACHN > 31.6 µM | HCT-116 > 31.6 µM | HOP-92 > 31.6 µM | DU-145 > 10 µM | NCI-H522 > 31.6 µM | RXF 393 > 10 µM | TK-10 > 31.6 µM | MDA-N > 10 µM | Malme-3M > 31.6 µM | SF-539 > 31.6 µM | SF-295 > 31.6 µM | MCF7 > 10 µM | M19-MEL > 100 µM | SK-MEL-2 > 31.6 µM

CCSc1nc(-c2ccc(OC)cc2)c(C#N)c(=O)n1C1OCC(OC(C)=O)C(OC(C)=O)C1OC(C)=O (stereo not drawn)
inactive: A498 > 100 µM | K562 > 100 µM | SNB-19 > 100 µM | UO-31 > 100 µM | MOLT-4 43.5 µM | M14 > 100 µM | ACHN > 100 µM | HCT-116 > 100 µM | HOP-92 > 100 µM | NCI-H522 92 µM | RXF 393 > 100 µM | TK-10 > 100 µM | Malme-3M > 100 µM | SF-539 > 100 µM | SF-295 > 100 µM | M19-MEL > 100 µM | SK-MEL-2 > 100 µM

CCN(CC)C(=O)c1c(Cl)cc(N(CC)CC)oc1=O
inactive: A498 > 100 µM | K562 > 100 µM | SNB-19 > 100 µM | UO-31 > 100 µM | MOLT-4 > 100 µM | M14 > 100 µM | ACHN > 100 µM | HCT-116 > 100 µM | HOP-92 > 100 µM | NCI-H522 > 100 µM | RXF 393 > 100 µM | TK-10 > 100 µM | Malme-3M > 100 µM | SF-539 > 100 µM | SF-295 > 100 µM | M19-MEL > 100 µM | SK-MEL-2 > 100 µM

CC(=O)OCC1OC(n2c(-c3ccc(N)cc3)cc(-c3ccco3)c(C#N)c2=O)C(OC(C)=O)C(OC(C)=O)C1OC(C)=O (stereo not drawn)
inactive: A498 > 50 µM | SNB-19 > 50 µM | UO-31 > 50 µM | MOLT-4 > 50 µM | M14 > 50 µM | ACHN > 50 µM | HCT-116 2.3 µM | HOP-92 4.08 µM | NCI-H522 8.17 µM | RXF 393 > 50 µM | TK-10 > 50 µM | Malme-3M > 50 µM | SF-539 7.62 µM | SF-295 28 µM | M19-MEL 18.7 µM | SK-MEL-2 22.4 µM
